Patent publication US11168087B2, “Substituted imidazo[1,2-b]pyridazines, substituted imidazo[1,5-b]pyridazines, related compounds, and their use in the treatment of medical disorders” (BIAL—R&D Investments, S.A., priority 2016, dated 2021)

Biological target: T1, glucocerebrosidase (Gcase) (Homo sapiens, UniProt P04062)
T1 construct: micellar solution containing 10 nM GCase and 100 nM saposin C
T1 sequence (P04062 40-536): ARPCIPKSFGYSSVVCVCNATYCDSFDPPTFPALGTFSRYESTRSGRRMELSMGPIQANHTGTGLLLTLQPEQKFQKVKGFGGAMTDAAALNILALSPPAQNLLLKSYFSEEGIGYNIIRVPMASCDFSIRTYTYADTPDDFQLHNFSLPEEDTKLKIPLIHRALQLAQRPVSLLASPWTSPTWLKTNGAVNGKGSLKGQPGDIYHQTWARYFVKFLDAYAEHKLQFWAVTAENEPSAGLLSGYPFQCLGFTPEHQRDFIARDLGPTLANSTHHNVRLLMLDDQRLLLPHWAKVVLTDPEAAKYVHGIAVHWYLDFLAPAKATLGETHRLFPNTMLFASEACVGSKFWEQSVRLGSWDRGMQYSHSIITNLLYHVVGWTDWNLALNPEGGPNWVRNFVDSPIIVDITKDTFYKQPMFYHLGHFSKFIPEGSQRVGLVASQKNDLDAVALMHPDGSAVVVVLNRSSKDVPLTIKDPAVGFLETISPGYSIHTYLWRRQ
Test: Glucocerebrosidase (Gcase) activation assay, 4-methylumbelliferyl-beta-D-glucopyranoside substrate, with saposin C
Type: biochemical
Details: 0.25 h; for activation at 0.1 µM: read-out: Percent Gcase Activation 0.1 μM Test Compound; for activation at 1 µM: read-out: Percent Gcase Activation 1 μM Test Compound
Protocol: The ability of exemplary compounds to activate glucocerebrosidase (Gcase) was measured.
A 484 μL aliquot of a 1.0 mg/mL solution of phosphatidylserine (PS) (Sigma P7769) in chloroform was evaporated under a stream of nitrogen for 1 hour. The lipid film was dissolved over 4 minutes of vigorous vortexing in 40 mL of 176 mM K2HPO4/50 mM citric acid (pH 4.7) containing 7.5 μL of triton X-100, resulting in a mixed micellar preparation with a composition of 0.32 mM triton and 0.37 mol % PS. 4-Methylumbelliferyl-beta-D-glucopyranoside (ACROS-337025000) was dissolved in the micellar solution to a final concentration of 2 mM for use as the reaction substrate.
Test compounds were diluted to the desired concentrations with dimethylsulfoxide (DMSO) from 10 mM stocks, and 0.41 μL of the DMSO compound mixture was added to 100 μL of micellar solution containing 10 nM GCase and 100 nM saposin C (Enzo ALX-201-262-C050). Pre-incubation was allowed to occur for 30 minutes at room temperature, after which the reaction was initiated by combining 25 μL of substrate solution with 25 μL of compound/GCase/saposin mixture. The reaction proceeded for 15 minutes at room temperature and was stopped by adding 150 μL of 1M glycine, pH 12.5. The endpoint of the reaction was monitored by measuring fluorescence intensity (excitation: 365 nm; emission: 440 nm) on a SpectraMax i3 instrument (Molecular Devices). Test compounds were screened at 1.0 and 0.1 μM final concentration, and subsequent 8-point dose response curves were obtained using 3-fold dilutions from a maximum final concentration of 5 μM.
The symbol “+” indicates less than 5% Gcase activation; the symbol “++” indicates Gcase activation in the range of 5% up to 20%; and the symbol “+++” indicates Gcase activation greater than 20%.

Structure (SMILES): Cc1cc(-c2ccc(F)cc2C#N)nn2c(C(=O)N[C@@H](C3CC3)C(F)(F)F)ncc12 [(S)-2-(2-Cyano-4-fluorophenyl)-N-(1-cyclopropyl-2,2,2-trifluoroethyl)-4-methylimidazo[1,5-b]pyridazine-7-carboxamide]
- activation at 0.1 µM: 5 to 20%
- activation at 1 µM: > 20%

Structure (SMILES): Cc1cc(-c2cccc(F)c2C#N)nn2c(C(=O)N[C@@H](C)C(F)(F)F)cnc12 [(S)-6-(2-Cyano-3-fluorophenyl)-8-methyl-N-(1,1,1-trifluoropropan-2-yl)imidazo[1,2-b]pyridazine-3-carboxamide]
- activation at 0.1 µM: 5 to 20%
- activation at 1 µM: > 20%

Structure (SMILES): Cc1cc(-c2cc(C)c3ncc(C(=O)N[C@H](C4CC4)C(F)(F)F)n3n2)sn1
- activation at 0.1 µM: > 20%
- activation at 1 µM: > 20%

Structure (SMILES): Cc1cc(-c2ccc(F)cc2C#N)nn2c(C(=O)N[C@H](C3CC3)C(F)(F)F)cnc12
- activation at 0.1 µM: 5 to 20%
- activation at 1 µM: > 20%

Structure (SMILES): Cc1cc(-c2ccc(F)cc2)nn2c(C(=O)NC(C3CC3)C(F)(F)F)ncc12 (stereo not drawn)
- activation at 0.1 µM: > 20%
- activation at 1 µM: > 20%

Structure (SMILES): Cc1cc(C)c2cnc(C(=O)Nc3ccc4c(c3)CCC4)n2n1
- activation at 0.1 µM: > 20%
- activation at 1 µM: > 20%

Structure (SMILES): C#Cc1ccc(NC(=O)c2ncc3c(C)cc(C)nn23)cc1
- activation at 0.1 µM: < 5%
- activation at 1 µM: > 20%

Structure (SMILES): Cc1cc(-c2cncc(Cl)c2)nn2c(C(=O)N[C@H](C3CC3)C(F)(F)F)cnc12
- activation at 0.1 µM: > 20%
- activation at 1 µM: > 20%

Structure (SMILES): Cc1nc2cc(-c3cc(C)c4ncc(C(=O)NC(C)C(F)(F)F)n4n3)ccc2o1 (stereo not drawn)
- activation at 0.1 µM: 5 to 20%
- activation at 1 µM: > 20%

Structure (SMILES): Cc1cc2ncc(C(=O)NC3CCCc4ccccc43)n2nc1Cl (stereo not drawn)
- activation at 0.1 µM: < 5%
- activation at 1 µM: 5 to 20%

Structure (SMILES): Cc1cc(-c2cc(F)ccc2C#N)nn2c(C(=O)N[C@@H](C)C3CC3)cnc12 [(S)-6-(2-Cyano-5-fluorophenyl)-N-(1-cyclopropylethyl)-8-methylimidazo[1,2-b]pyridazine-3-carboxamide]
- activation at 0.1 µM: 5 to 20%
- activation at 1 µM: > 20%

Structure (SMILES): Cc1cc(-c2ccc(F)cc2)nn2c(C(=O)NC(C)C(F)(F)F)ncc12 (stereo not drawn)
- activation at 0.1 µM: 5 to 20%
- activation at 1 µM: > 20%

Structure (SMILES): Cc1cc(-c2ccc(F)cc2C#N)nn2c(C(=O)NC(C3CC3)C(F)(F)F)cnc12 (stereo not drawn)
- activation at 0.1 µM: 5 to 20%
- activation at 1 µM: > 20%

Structure (SMILES): COc1cncc(-c2cc(C)c3ncc(C(=O)N[C@H](C4CC4)C(F)(F)F)n3n2)c1
- activation at 0.1 µM: 5 to 20%
- activation at 1 µM: > 20%

Structure (SMILES): Cc1cc(-c2cccnc2)nc2c(C(=O)NC(C3CC3)C(F)(F)F)nsc12 (stereo not drawn)
- activation at 0.1 µM: < 5%
- activation at 1 µM: 5 to 20%

Structure (SMILES): Cc1cc(C)c2cnc(C(=O)Nc3ccc(-c4cocn4)cc3)n2n1
- activation at 0.1 µM: < 5%
- activation at 1 µM: > 20%

Structure (SMILES): CCCCCCOC1CCC(NC(=O)c2cnc3cc(C)c(Cl)nn23)CC1 (stereo not drawn)
- activation at 0.1 µM: < 5%
- activation at 1 µM: < 5%

Structure (SMILES): Cc1cc(-c2cc(F)ccc2C#N)nn2c(C(=O)N[C@@H](C)C(F)(F)F)cnc12 [(S)-6-(2-Cyano-5-fluorophenyl)-8-methyl-N-(1,1,1-trifluoropropan-2-yl)imidazo[1,2-b]pyridazine-3-carboxamide]
- activation at 0.1 µM: 5 to 20%
- activation at 1 µM: > 20%

Structure (SMILES): C#CC(NC(=O)c1ncc2c(C)cc(-c3cccc(F)c3)nn12)C(F)(F)F (stereo not drawn) [2-(3-Fluorophenyl)-4-methyl-N-(1,1,1-trifluorobut-3-yn-2-yl)imidazo[1,5-b]pyridazine-7-carboxamide]
- activation at 0.1 µM: > 20%
- activation at 1 µM: > 20%

Structure (SMILES): Cc1cc(-c2ccc3ocnc3c2)nn2c(C(=O)N[C@H](C)C(F)(F)F)cnc12
- activation at 0.1 µM: 5 to 20%
- activation at 1 µM: > 20%

Structure (SMILES): Cc1cc(-c2sccc2C#N)nn2c(C(=O)N[C@H](C3CC3)C(F)(F)F)cnc12
- activation at 0.1 µM: > 20%
- activation at 1 µM: > 20%

Structure (SMILES): Cc1cc(-c2ccc(C#N)o2)nn2c(C(=O)N[C@@H](C3CC3)C(F)(F)F)cnc12
- activation at 0.1 µM: > 20%
- activation at 1 µM: > 20%

Structure (SMILES): Cc1cc(-c2cccc3ncoc23)nn2c(C(=O)NC(C)C(F)(F)F)cnc12 (stereo not drawn)
- activation at 0.1 µM: < 5%
- activation at 1 µM: > 20%

Structure (SMILES): Cc1cc(-c2ccc(C#N)o2)nn2c(C(=O)N[C@H](C3CC3)C(F)(F)F)cnc12
- activation at 0.1 µM: > 20%
- activation at 1 µM: > 20%

Structure (SMILES): Cc1cc(C)c2scc(C(=O)NC(C)(C)C3CC3)c2n1
- activation at 0.1 µM: > 20%
- activation at 1 µM: > 20%

Structure (SMILES): Cc1cc(-c2cccc3ocnc23)nn2c(C(=O)NC(C3CC3)C(F)(F)F)cnc12 (stereo not drawn)
- activation at 0.1 µM: 5 to 20%
- activation at 1 µM: > 20%

Structure (SMILES): Cc1cc(-c2ccc(F)cc2C#N)nn2c(C(=O)N[C@@H](C)C3CC3)cnc12
- activation at 0.1 µM: 5 to 20%
- activation at 1 µM: > 20%

Structure (SMILES): C#CC(C)(C)NC(=O)c1cnc2c(C)cc(-c3ccns3)nn12
- activation at 0.1 µM: < 5%
- activation at 1 µM: > 20%

Structure (SMILES): Cc1ccc(-c2cc(C)c3ncc(C(=O)N[C@H](C4CC4)C(F)(F)F)n3n2)cn1 [(R)-6-(6-Methylpyridin-3-yl)-N-(1-cyclopropyl-2,2,2-trifluoroethyl)-8-methylimidazo[1,2-b]pyridazine-3-carboxamide]
- activation at 0.1 µM: 5 to 20%
- activation at 1 µM: > 20%

Structure (SMILES): Cc1cc(C)c2cnc(C(=O)NC(C3CC3)C(F)(F)F)n2n1 (stereo not drawn)
- activation at 0.1 µM: < 5%
- activation at 1 µM: > 20%

Structure (SMILES): Cc1cc(-c2ccc(F)cc2)nn2c(C(=O)NC(C)(C)C3CC3)ncc12
- activation at 0.1 µM: > 20%
- activation at 1 µM: > 20%

Structure (SMILES): Cc1cc(-c2ccc(F)cc2C#N)nn2c(C(=O)N[C@@H](C)C(F)(F)F)cnc12
- activation at 0.1 µM: 5 to 20%
- activation at 1 µM: > 20%

Structure (SMILES): Cc1cc(-c2cccc3ncoc23)nn2c(C(=O)NC(C3CC3)C(F)(F)F)cnc12 (stereo not drawn)
- activation at 0.1 µM: 5 to 20%
- activation at 1 µM: > 20%

Structure (SMILES): Cc1cc(C#N)c(-c2cc(C)c3ncc(C(=O)N[C@@H](C)C4CC4)n3n2)o1 [(S)-6-(3-Cyano-5-methylfuran-2-yl)-N-(1-cyclopropylethyl)-8-methylimidazo[1,2-b]pyridazine-3-carboxamide]
- activation at 0.1 µM: > 20%
- activation at 1 µM: > 20%

Structure (SMILES): Cc1cc(-c2ccc3ocnc3c2)nn2c(C(=O)NC(C)C3CC3)cnc12 (stereo not drawn)
- activation at 0.1 µM: > 20%
- activation at 1 µM: > 20%

Structure (SMILES): Cc1cc(C)c2ncc(C(=O)Nc3ccc4c(c3)CCC4)n2n1
- activation at 0.1 µM: 5 to 20%
- activation at 1 µM: > 20%

Structure (SMILES): Cc1cc(C)c2cnc(C(=O)NC3CCCc4ccccc43)n2n1 (stereo not drawn)
- activation at 0.1 µM: 5 to 20%
- activation at 1 µM: > 20%

Structure (SMILES): Cc1cc(C)c2ncc(C(=O)NC3CCCc4ccccc43)n2n1 (stereo not drawn)
- activation at 0.1 µM: 5 to 20%
- activation at 1 µM: > 20%

Structure (SMILES): CCCCCO[C@H]1CC[C@H](NC(=O)c2cnc3ccc(Cl)nn23)CC1
- activation at 0.1 µM: < 5%
- activation at 1 µM: 5 to 20%

Structure (SMILES): Cc1cc(-c2ccc3ncn(C)c3c2)nn2c(C(=O)N[C@H](C3CC3)C(F)(F)F)cnc12 [(R)—N-(1-Cyclopropyl-2,2,2-trifluoroethyl)-8-methyl-6-(1-methyl-1H-benzo[d]imidazol-6-yl)imidazo[1,2-b]pyridazine-3-carboxamide]
- activation at 0.1 µM: 5 to 20%
- activation at 1 µM: > 20%

Structure (SMILES): Cc1cc(C#N)c(-c2cc(C)c3ncc(C(=O)N[C@H](C)C(F)(F)F)n3n2)o1
- activation at 0.1 µM: 5 to 20%
- activation at 1 µM: > 20%

Structure (SMILES): Cc1cc(-c2ccc(F)cc2)nn2c(C(=O)N[C@@H](C)C3CC3)nnc12
- activation at 0.1 µM: < 5%
- activation at 1 µM: < 5%

Structure (SMILES): Cc1cc(-c2ccccc2C#N)nn2c(C(=O)NC(C3CC3)C(F)(F)F)cnc12 (stereo not drawn)
- activation at 0.1 µM: 5 to 20%
- activation at 1 µM: > 20%

Structure (SMILES): CCCCCO[C@H]1CC[C@H](NC(=O)c2coc3c(C)cc(C)nc23)CC1 [5,7-Dimethyl-N-((1R,4R)-4-(pentyloxy)cyclohexyl)furo[3,2-b]pyridine-3-carboxamide]
- activation at 0.1 µM: 5 to 20%
- activation at 1 µM: > 20%

Structure (SMILES): Cc1cc(C)c2occ(C(=O)Nc3ccc4c(c3)CCC4)c2n1 [N-(2,3-Dihydro-1H-inden-5-yl)-5,7-dimethylfuro[3,2-b]pyridine-3-carboxamide]
- activation at 0.1 µM: 5 to 20%
- activation at 1 µM: > 20%

Structure (SMILES): Cc1cncc(-c2cc(C)c3ncc(C(=O)N[C@H](C4CC4)C(F)(F)F)n3n2)c1
- activation at 0.1 µM: 5 to 20%
- activation at 1 µM: > 20%

Structure (SMILES): Cc1cc(-c2cccc(F)c2)nn2c(C(=O)NC(C)(C)C3CC3)ncc12
- activation at 0.1 µM: > 20%
- activation at 1 µM: > 20%

Structure (SMILES): Cc1cc(-c2cccnc2F)nn2c(C(=O)NC(C3CC3)C(F)(F)F)cnc12 (stereo not drawn)
- activation at 0.1 µM: 5 to 20%
- activation at 1 µM: > 20%
